We go through one compound from patent US9186318B2, “Quinolyl-containing hydroxamic acid compound and preparation method thereof, and pharmaceutical composition containing this compound and use thereof” (Beijing Konruns Pharmaceutical Co., Ltd, priority 2011, dated 2015).

Holding throughout (assay): KinomeScan 96-kinase panel
Type in all cases: binding
Common to all, as to conditions: compound concentration 1000 nM

Test [1] has as its target PAK2 (Homo sapiens (Human), UniProt Q13177). An excerpt: (§1) The details of the screening technology were described in Fabian, M. A. et al, Nat., Biotechnol. 2005, 23, 329 and Karaman, M. W. et al, Nat., Biotechnol. 2008, 26, 127. From the above representative results, it can be seen that the compounds of the present invention have potent inhibitory activities on kinases including ALK, AXL, VEGFR2, PDGFR-α, PDGFR-β, c-KIT, Flt3, MEK1, MEK2, CSF1R, EPHA2, EPHA2, MKNK2, SRC, TIE2 and their mutants. Accordingly, the compounds of the present invention can be used for the treatment of diseases caused by abnormal activities of these kinases, e.g., cancer, psoriasis, hepatic cirrhosis, diabetes, diseases involving angiogenesis, eye diseases, immune system diseases, cardiovascular diseases, and so forth.

Test [2] has as its target RSK2 (Kin.Dom.1-N-terminal) (Homo sapiens (Human), UniProt P51812).
From the text: as §1

The target of test [3] is PLK1 (Homo sapiens (Human), UniProt P53350).
From the text: as §1

The target of test [4] is AKT1 (Homo sapiens (Human), UniProt P31749).
From the text: as §1

The target of test [5] is FGFR2 (Homo sapiens (Human), UniProt P21802).
From the text: as §1

Test [6] deals with ADCK3 (Homo sapiens (Human), UniProt Q8NI60).
From the text: as §1

The target of test [7] is INSR (Homo sapiens (Human), UniProt P06213).
From the text: as §1

The target of test [8] is ERBB4 (Homo sapiens (Human), UniProt Q15303).
From the text: as §1

The target of test [9] is AURKA (Homo sapiens (Human), UniProt O14965).
From the text: as §1

The target in test [10] is TSSK1B (Homo sapiens (Human), UniProt Q9BXA7).
From the text: as §1

Test [11] concerns the target BMPR2 (Homo sapiens (Human), UniProt Q13873).
From the text: as §1

For test [12], the target named is SNARK (Homo sapiens (Human), UniProt Q9H093).
From the text: as §1

For test [13], the target named is KIT (V559D, T670I) (Homo sapiens (Human), UniProt P10721, T670I/V559D).
From the text: as §1

In test [14] the target is RET (Homo sapiens (Human), UniProt P07949).
From the text: as §1

Test [15] has as its target PIK3CG (Homo sapiens (Human), UniProt P48736).
From the text: as §1

Test [16] concerns the target ABL1-phosphorylated (Homo sapiens (Human), UniProt P00519).
From the text: as §1

Test [17] addresses LKB1 (Homo sapiens (Human), UniProt Q15831).
From the text: as §1

Test [18] concerns the target PLK4 (Homo sapiens (Human), UniProt O00444).
From the text: as §1

Test [19] has as its target PIM2 (Homo sapiens (Human), UniProt Q9P1W9).
From the text: as §1

Test [20] addresses SRPK3 (Homo sapiens (Human), UniProt Q9UPE1).
From the text: as §1

The target in test [21] is KIT (D816V) (Homo sapiens (Human), UniProt P10721, D816V).
From the text: as §1

SMILES strings stand for the structures.

ABL1-phosphorylated, sequence (P00519 whole entry): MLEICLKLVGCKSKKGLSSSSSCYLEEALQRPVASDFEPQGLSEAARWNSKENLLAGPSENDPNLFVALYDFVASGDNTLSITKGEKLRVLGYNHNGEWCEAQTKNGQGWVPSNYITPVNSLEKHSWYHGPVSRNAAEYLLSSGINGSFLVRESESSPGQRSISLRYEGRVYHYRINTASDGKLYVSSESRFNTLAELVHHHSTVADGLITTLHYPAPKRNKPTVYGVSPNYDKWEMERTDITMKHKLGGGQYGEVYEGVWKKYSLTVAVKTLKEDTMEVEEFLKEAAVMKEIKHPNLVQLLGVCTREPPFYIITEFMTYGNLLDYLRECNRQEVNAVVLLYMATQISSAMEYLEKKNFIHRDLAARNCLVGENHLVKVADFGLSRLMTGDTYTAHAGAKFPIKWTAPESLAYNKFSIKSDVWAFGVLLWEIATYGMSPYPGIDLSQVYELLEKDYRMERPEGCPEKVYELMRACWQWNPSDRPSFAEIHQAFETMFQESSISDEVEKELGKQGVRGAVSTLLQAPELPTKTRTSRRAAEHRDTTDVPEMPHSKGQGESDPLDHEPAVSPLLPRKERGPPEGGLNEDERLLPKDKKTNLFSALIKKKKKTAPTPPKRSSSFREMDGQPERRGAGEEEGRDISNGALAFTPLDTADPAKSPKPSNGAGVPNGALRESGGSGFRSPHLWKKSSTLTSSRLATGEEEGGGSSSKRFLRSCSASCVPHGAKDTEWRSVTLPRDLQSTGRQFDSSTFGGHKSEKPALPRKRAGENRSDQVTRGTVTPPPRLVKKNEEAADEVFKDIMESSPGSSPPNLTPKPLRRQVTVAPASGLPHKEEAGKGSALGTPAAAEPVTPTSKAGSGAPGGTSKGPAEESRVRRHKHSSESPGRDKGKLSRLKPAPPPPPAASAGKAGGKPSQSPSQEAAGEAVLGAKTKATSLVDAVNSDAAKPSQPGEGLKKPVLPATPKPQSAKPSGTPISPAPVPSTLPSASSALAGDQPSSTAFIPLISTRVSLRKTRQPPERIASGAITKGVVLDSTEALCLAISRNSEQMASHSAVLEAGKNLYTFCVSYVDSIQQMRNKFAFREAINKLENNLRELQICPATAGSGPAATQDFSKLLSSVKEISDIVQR
SRPK3, sequence (Q9UPE1 whole entry): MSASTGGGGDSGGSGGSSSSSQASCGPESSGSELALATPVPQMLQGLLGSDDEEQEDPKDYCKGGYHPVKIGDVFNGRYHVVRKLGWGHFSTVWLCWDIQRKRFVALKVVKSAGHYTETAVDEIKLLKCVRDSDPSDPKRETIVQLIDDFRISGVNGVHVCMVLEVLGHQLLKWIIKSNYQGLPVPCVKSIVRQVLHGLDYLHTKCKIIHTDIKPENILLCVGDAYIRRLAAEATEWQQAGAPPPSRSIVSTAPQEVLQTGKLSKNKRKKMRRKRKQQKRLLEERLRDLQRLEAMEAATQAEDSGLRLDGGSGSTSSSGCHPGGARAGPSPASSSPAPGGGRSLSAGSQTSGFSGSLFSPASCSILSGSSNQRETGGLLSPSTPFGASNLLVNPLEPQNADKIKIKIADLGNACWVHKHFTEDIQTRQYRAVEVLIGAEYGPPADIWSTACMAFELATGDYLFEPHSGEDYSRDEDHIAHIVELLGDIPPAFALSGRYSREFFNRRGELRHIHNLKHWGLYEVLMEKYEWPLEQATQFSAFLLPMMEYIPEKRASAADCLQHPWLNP
BMPR2, sequence (Q13873 27-1038): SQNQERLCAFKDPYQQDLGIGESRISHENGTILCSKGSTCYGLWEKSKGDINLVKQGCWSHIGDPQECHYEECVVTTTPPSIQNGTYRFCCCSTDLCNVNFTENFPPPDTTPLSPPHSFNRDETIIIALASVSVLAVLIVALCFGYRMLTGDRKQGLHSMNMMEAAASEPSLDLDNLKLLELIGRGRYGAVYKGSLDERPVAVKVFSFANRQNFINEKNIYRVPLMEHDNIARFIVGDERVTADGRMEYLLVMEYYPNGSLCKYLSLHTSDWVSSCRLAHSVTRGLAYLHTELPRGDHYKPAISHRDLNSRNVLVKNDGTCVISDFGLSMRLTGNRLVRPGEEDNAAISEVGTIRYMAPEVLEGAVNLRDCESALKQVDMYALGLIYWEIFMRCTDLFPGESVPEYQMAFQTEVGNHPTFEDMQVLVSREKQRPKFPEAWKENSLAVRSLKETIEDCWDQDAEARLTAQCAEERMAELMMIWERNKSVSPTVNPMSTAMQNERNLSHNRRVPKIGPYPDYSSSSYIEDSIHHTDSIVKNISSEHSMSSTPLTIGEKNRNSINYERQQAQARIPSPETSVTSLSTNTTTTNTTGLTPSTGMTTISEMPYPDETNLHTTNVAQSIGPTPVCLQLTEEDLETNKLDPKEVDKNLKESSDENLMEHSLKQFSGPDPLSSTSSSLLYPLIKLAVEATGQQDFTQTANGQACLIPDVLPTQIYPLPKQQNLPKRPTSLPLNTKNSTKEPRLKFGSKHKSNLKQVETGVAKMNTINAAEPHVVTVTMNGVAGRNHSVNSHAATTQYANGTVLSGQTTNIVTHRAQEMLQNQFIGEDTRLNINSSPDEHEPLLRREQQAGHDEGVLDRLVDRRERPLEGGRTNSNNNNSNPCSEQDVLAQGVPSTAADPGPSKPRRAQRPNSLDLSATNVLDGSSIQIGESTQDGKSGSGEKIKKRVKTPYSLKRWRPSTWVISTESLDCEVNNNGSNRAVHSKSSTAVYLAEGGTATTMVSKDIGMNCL
PLK4, sequence (O00444 whole entry): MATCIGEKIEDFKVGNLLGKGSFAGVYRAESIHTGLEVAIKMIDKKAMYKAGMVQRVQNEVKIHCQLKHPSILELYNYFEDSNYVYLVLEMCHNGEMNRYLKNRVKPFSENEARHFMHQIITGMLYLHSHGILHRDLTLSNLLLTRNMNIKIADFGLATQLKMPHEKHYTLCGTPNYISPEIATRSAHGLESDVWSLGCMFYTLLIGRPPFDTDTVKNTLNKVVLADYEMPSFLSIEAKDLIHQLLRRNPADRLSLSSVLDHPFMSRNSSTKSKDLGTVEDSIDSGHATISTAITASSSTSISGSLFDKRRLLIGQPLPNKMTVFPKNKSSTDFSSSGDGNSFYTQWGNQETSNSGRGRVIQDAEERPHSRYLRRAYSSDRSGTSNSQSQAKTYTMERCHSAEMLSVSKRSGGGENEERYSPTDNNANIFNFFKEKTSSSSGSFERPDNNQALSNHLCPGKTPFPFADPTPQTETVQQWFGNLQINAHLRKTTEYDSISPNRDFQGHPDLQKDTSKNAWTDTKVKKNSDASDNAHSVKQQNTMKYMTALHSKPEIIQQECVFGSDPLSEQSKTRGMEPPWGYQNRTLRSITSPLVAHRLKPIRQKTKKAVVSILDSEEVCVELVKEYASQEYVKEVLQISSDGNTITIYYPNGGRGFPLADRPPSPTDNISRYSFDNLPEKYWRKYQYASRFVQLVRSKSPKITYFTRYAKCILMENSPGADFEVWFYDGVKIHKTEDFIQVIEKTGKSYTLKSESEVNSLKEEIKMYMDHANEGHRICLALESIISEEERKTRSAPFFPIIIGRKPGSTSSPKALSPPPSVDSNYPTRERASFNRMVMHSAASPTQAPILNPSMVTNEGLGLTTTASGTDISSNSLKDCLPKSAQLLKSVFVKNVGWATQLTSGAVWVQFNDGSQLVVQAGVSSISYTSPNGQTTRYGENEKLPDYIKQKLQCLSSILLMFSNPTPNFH
ERBB4, sequence (Q15303 26-1308): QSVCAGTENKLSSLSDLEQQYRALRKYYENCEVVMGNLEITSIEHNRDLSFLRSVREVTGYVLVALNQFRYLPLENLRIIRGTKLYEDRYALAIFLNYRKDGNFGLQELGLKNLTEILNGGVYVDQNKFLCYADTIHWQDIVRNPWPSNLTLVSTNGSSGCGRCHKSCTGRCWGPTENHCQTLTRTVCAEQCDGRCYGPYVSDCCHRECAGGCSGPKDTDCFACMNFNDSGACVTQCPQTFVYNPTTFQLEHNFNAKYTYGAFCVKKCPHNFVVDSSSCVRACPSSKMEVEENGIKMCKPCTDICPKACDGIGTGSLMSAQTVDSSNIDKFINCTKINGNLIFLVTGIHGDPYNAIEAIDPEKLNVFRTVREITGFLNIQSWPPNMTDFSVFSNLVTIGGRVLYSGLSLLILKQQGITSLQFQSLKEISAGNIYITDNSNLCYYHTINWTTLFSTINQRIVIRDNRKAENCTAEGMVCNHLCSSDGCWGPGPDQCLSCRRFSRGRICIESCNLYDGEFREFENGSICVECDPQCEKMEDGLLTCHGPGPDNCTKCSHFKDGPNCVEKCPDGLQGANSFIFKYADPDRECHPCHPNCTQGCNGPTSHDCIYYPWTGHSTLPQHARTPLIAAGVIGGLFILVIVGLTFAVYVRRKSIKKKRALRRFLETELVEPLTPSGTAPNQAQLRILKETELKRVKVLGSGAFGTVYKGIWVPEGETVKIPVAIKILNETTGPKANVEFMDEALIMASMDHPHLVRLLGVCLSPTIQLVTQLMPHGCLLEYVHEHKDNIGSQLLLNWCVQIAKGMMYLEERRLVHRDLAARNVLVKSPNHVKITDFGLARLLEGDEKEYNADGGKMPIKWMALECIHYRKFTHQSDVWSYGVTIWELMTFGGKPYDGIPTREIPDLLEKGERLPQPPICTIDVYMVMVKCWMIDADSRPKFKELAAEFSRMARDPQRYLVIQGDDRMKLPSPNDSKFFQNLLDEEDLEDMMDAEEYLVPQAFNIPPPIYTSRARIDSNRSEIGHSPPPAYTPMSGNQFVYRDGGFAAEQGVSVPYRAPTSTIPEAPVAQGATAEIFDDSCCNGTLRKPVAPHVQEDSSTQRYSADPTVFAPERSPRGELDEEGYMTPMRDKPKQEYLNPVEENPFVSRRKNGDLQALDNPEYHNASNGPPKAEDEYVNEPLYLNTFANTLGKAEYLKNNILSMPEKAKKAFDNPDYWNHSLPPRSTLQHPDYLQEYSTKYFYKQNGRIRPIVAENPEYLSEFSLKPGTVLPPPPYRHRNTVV

In the case of `COc1cc2c(Oc3ccc(NC(=O)C4(C(=O)Nc5ccc(F)cc5)CC4)cc3F)ccnc2cc1OCCCCCC(=O)NO` [Example 13, N1′-[3-fluoro-4-[[7-[6-(hydroxyamino)-6-oxohexyloxy]-6-methoxy-4-quinolyl]oxy]phenyl]-N1-(4-fluorophenyl)cyclopropane-1,1-dicarboxamide], the “% Ctrl@1000 nM” value in test [1] amounted to 76 % Ctrl; in test [2], 96 % Ctrl; in [3], 100 % Ctrl; in test [4], 100 % Ctrl; in test [5], 65 % Ctrl; in test [6], 100 % Ctrl. Further, the “% Ctrl@1000 nM” value is given as 6 % Ctrl in test [7]; 17 % Ctrl in test [8]; 5.2 % Ctrl in [9]; 50 % Ctrl in test [10]; 100 % Ctrl in test [11]; 91 % Ctrl in test [12]. For the same compound, the “% Ctrl@1000 nM” value in test [13] came out at 0.15 % Ctrl; in [14], 0 % Ctrl; in test [15], 66 % Ctrl; in [16], 4.8 % Ctrl; in [17], 91 % Ctrl; in [18], 0.55 % Ctrl. Besides, the figures for the “% Ctrl@1000 nM” value in [19], in test [20] and in [21] were 100 % Ctrl, 76 % Ctrl and 2.2 % Ctrl, respectively.
